Experimental data taken from the NIST ThermoML archive (doi:10.1021/acs.jced.6b00232).

Assay: mn = molality of the nth substance listed, in mol/kg
Settings: 84.5 kPa, Liquid; for speed of sound: Frequency=3 MHz, Sing-around technique in a fixed-path interferometer; for mass density: Vibrating tube method

O=C(CO)[C@@H](O)[C@H](O)[C@H](O)CO [D-fructose] + O
Settings	mass density, 288.15 K [kg/m3]	mass density, 293.15 K [kg/m3]	mass density, 298.15 K [kg/m3]	mass density, 303.15 K [kg/m3]	mass density, 308.15 K [kg/m3]	speed of sound, 288.15 K [m/s]	speed of sound, 293.15 K [m/s]	speed of sound, 298.15 K [m/s]	speed of sound, 303.15 K [m/s]	speed of sound, 308.15 K [m/s]
m1 = 0.1716	–	–	1008.73	–	–	1478.9	1494.4	1508	1519.8	1529.9
m1 = 0.2312	1015.03	1013.99	1012.69	–	1009.43	1483.2	1498.5	1511.8	–	1533.4
m1 = 0.292	1019.08	1018	1016.66	1015.1	1013.34	1487.5	–	1515.7	1527.1	1536.9
m1 = 0.4825	1031.39	1030.21	1028.76	1027.1	1025.25	1500.9	1515.3	–	–	1547.8
m1 = 0.6161	1039.7	1038.45	1036.93	1035.21	1033.29	1510.2	1524.1	1536.2	1546.5	1555.3
m1 = 0.9787	1061.06	1059.67	1057.92	1056.02	1053.95	1534.7	1547.5	1558.4	1567.7	1575.5
m1 = 1.386	1083.13	1081.5	1079.62	1077.55	1075.32	1561.6	1572.9	1582.5	1590.7	1597.3
m1 = 1.851	1106.02	1104.26	1102.2	1099.94	1097.55	1588.9	1599.1	1607.5	1614.3	1619.9
m1 = 2.379	1129.63	1127.76	1125.52	1123.09	1120.53	1622.1	1630.8	1637.6	1643	1647.2
m1 = 2.981	1153.68	1151.66	1149.24	1146.65	1143.92	1655.5	1662.7	1668	1671.9	1674.7
m1 = 3.667	1178.12	1175.94	1173.34	1170.58	1167.69	1691	1696.5	1700.1	1702.5	1703.9

O=C[C@H](O)[C@@H](O)[C@H](O)[C@H](O)CO [D-glucose] + O
Settings	mass density, 288.15 K [kg/m3]	mass density, 293.15 K [kg/m3]	mass density, 298.15 K [kg/m3]	mass density, 303.15 K [kg/m3]	mass density, 308.15 K [kg/m3]	speed of sound, 288.15 K [m/s]	speed of sound, 293.15 K [m/s]	speed of sound, 298.15 K [m/s]	speed of sound, 303.15 K [m/s]	speed of sound, 308.15 K [m/s]
m1 = 0.2921	1018.67	1017.62	1016.34	1014.83	1013.12	–	1501	1514.3	1526	1535.9
m1 = 0.4836	1030.78	1029.64	1028.28	1026.7	1024.93	1498.4	1513	1525.9	1537.1	1546.6
m1 = 0.6164	1038.85	1037.66	1036.24	1034.62	1032.81	1507	1521.3	1533.9	1544.7	1554
m1 = 0.9795	1059.74	1058.4	1056.86	1055.12	1053.22	1530.3	–	1555.2	1565.2	1573.6
m1 = 1.388	1081.24	1079.76	1078.09	1076.24	1074.24	1555.6	1567.8	1578.4	1587.4	1595
m1 = 1.85	1103.58	1101.95	1100.14	1098.18	1096.07	1583.6	1594.7	1604.2	1612.2	1618.8
m1 = 2.379	1126.54	1124.77	1122.85	1120.79	1118.58	1613.6	1623.3	1631.7	1638.6	1644.3
m1 = 2.989	1150.24	1148.34	1146.3	1144.14	1141.85	1646	1654.4	1661.4	1667.2	1671.8
m1 = 3.7	1174.74	1172.71	1170.56	1168.3	1165.92	1681.2	1688	1693.8	1698.3	1701.8

OC[C@H]1O[C@@](CO)(O[C@H]2O[C@H](CO)[C@@H](O)[C@H](O)[C@H]2O)[C@@H](O)[C@@H]1O [D-sucrose] + O
Settings	mass density, 288.15 K [kg/m3]	mass density, 293.15 K [kg/m3]	mass density, 298.15 K [kg/m3]	mass density, 303.15 K [kg/m3]	mass density, 308.15 K [kg/m3]	speed of sound, 288.15 K [m/s]	speed of sound, 293.15 K [m/s]	speed of sound, 298.15 K [m/s]	speed of sound, 303.15 K [m/s]	speed of sound, 308.15 K [m/s]
m1 = 0.09036	1010.86	1009.89	1008.67	1007.22	1005.55	1475.4	1491.1	1504.9	1516.9	1527.3
m1 = 0.1217	1014.83	1013.84	1012.59	1011.12	1009.43	1478.5	1494	1507.7	1519.6	1529.8
m1 = 0.1537	1018.82	1017.8	1016.53	1015.04	1013.34	1481.6	1497	1510.6	1522.3	1532.5
m1 = 0.2538	1030.98	1029.88	1028.55	1027	1025.25	1491.5	1506.4	1519.5	1530.9	1540.7
m1 = 0.3245	1039.25	1038.1	1036.73	1035.14	1033.35	1498.3	1513	1525.8	1537	1546.5
m1 = 0.5156	1060.41	1059.13	1057.64	1055.96	1054.09	1516.8	1530.7	1542.8	1553.2	1562
m1 = 0.729	1082.25	1080.85	1079.25	1077.46	1075.5	1537.3	1550.2	1561.5	1571.1	1579.2
m1 = 0.9736	1105.1	1103.56	1101.84	1099.96	1097.9	1559.9	1571.9	1582.2	1591	1598.4
m1 = 1.252	1128.74	1127.07	1125.24	1123.25	1121.11	1585.2	1596.1	1605.4	1613.3	1619.7
m1 = 1.573	1153.12	1151.33	1149.38	1147.28	1145.06	1613	1622.7	1630.9	1637.7	1643.2
m1 = 1.948	1178.48	1176.55	1174.48	1172.29	1169.98	1643.8	1652.1	1659.1	1664.8	1669.3
